Test results taken from patent US20100075919A1, “COMPOSITIONS COMPRISING ALKYLDIMONIUM HYDROXYPROPYL ALKYLGLUCOSIDES” (priority 2008, published 2010).

How the values were obtained:
[1] = system: three bacterium and two fungal strains; assay: Testing of commercially available alkyldimonium hydroxypropyl alkylglucosides for biocidal efficacy in aqueous buffered borate solution; format: cell-based
[2] = system: A. Niger; assay: Preservative efficacy response study against A. Niger in borate-buffered solution; format: cell-based; settings: S-1218 in the solutions with or without PHMB
From the text: A “preservative-effective amount” is defined as a sufficient amount of alkyldimonium hydroxypropyl alkylglucoside of general formula I or general formula II in the formulation to reduce the cell population by two log orders after 7 days of the five following microorganisms, Staphylococcus aureus, Pseudomonas aeruginosa, Eschrechia coli, Candida albicans and Aspergillus niger, or that which will prevent the growth of fungal bioburden by ±0.5 log.
Data obtained from a preservative efficacy response study of S-1218 with or without the stated concentrations of PHMB in borate-buffered solution containing 0.85 wt. % sodium borate, 0.06 wt. % boric acid and 0.26 wt. % sodium chloride is provided in Tables 3A and 3B. The study also included a response against S. Aureus, P. Aeruginosa, E. Coli, and C. Albicans.
Data obtained from a preservative efficacy response study of select alkyldimonium hydroxypropyl alkylglucosides of general formula I or general formula II in borate-buffered solution containing 0.85 wt. % sodium borate, 0.06 wt. % boric acid and 0.26 wt. % sodium chloride is provided in Table 4. Example 9 includes 0.2 wt. % S-1218; Example 10 includes 0.2 wt. % S-1010P; Example 11 includes 0.2 wt. % L-1210P; and Example 12 includes 0.2 wt. % S-1010. The study also included a response against S. Aureus, P. Aeruginosa, E. Coli, and C. Albicans.

Substance	biocidal efficacy (in words) [1]	biocidal control of A. Niger (in words) [2]
stearyl dimonium hydropropyl laurylglucoside	relatively high increase in biocidal efficacy	
stearyldimonium hydropropyl decylglucoside	relatively high increase in biocidal efficacy	
stearyldimonium hydroxypropyl laurylglucosides chloride [Example S-1218]		significant biocidal control
